Measured values taken from PMC9738062, “Selectively Halogenated Flavonolignans—Preparation and Antibacterial Activity” (International Journal of Molecular Sciences, 2022).
Entries after “also recorded” stand apart in the source; their conditions may differ.

Assays:
[1] = tested on: Vibrio campbellii BAA 1119 (AI-2); experiment: microbe, parasite or virus in culture; format: cell-based; conditions: for EC50: Vibrio campbellii, BAA1119, 16 h, read-out: EC50 (concentration that halved the communication); for SI (selectivity index): ratio IC50 (viability) / EC50 (communication), BAA 1119
From the text: (§1) Commercially available strains of Vibrio campbellii were used to evaluate the ability of flavonoids and their derivatives to inhibit bacterial quorum sensing. V. campbellii uses two types of autoinducing molecules for its communication—N-acyl-homoserine lactones (Autoinducer I, AI-1, strain BAA 1118) and furanosyl borate diester (Autoinducer II, AI-2, strain BAA 1119). AI-1-based communication is mainly used by Gram-negative bacteria, while AI-2-based communication is found in both Gram-negative and Gram-positive bacteria. The mutant strains of V. campbellii BA1118 and BA1119 respond only to AI-1 or AI-2, respectively, and the response to the respective AI concentration is measured as luminescence. The higher the AI concentration, the higher the luminescence signal. The ability to inhibit the communication was expressed as the selectivity index (SI), calculated as the ratio between the concentration that halved the viability (IC50) and the concentration that halved the communication (EC50) of the respective V. campbellii strains. […] The antimicrobial activity of quorum-sensing inhibitors is undesirable because it creates a selection pressure and can lead to the development of resistance.
(§2) The inhibition of bacterial extracellular communication was measured using Vibrio campbellii strains BAA-1118 and BAA-1119. The experiment was performed according to the methods of Szemerédi et al.. Briefly, 5 × 10^5 CFU/mL (colony-forming units per milliliter) were seeded in an Autoinducer Bioassay medium (NaCl 17.5 g/L, MgSO4 12.3 g/L, Casamino acids 2 g/L, 10 mL of 1 M potassium phosphate pH 7.0, 10 mL of 0.1 M L-arginine, and 10 mL of glycerol in 970 mL of deionized water) in a 96-well plate. Immediately, the tested compounds were added at the final concentration of 0.2–200 µM and luminescence was recorded for 16 h by a SpectraMax i3x microplate reader set at 30 °C, an integration time of 10,000 ms, and shaking for 60 s before measurement. […] The selectivity index was calculated as the […]. The EC50 and IC50 were calculated using GraphPad Prism software version 5.00 for Windows with a nonlinear regression curve fit.

[2] = tested on: Vibrio campbellii BAA 1118 (AI-1); experiment: microbe, parasite or virus in culture; format: cell-based; conditions: for EC50: Vibrio campbellii, BAA1118, 16 h, read-out: EC50 (concentration that halved the communication); for SI (selectivity index): ratio IC50 (viability) / EC50 (communication), BAA 1118
From the text: as §1, §2

[3] = tested on: doxorubicin-resistant human ovarian carcinoma (HOC/DOX); experiment: Cytotoxicity (resazurin assay, 72 h); format: cell-based; conditions: for IC50: Homo sapiens, 72 h, resazurin assay; for SI (selectivity index): ratio IC50 for HDF / IC50 for HOC/DOX
Procedure: (§3) The cytotoxicity of flavonoids and their halogenated derivatives was determined as their ability to decrease the viability of human dermal fibroblasts (HDF) and doxorubicin-resistant human ovarian carcinomas (HOC/DOX). Both cell lines were cultivated in Dulbecco’s Modified Eagle’s Medium supplemented with fetal bovine serum (FBS, 10% v/v) and 1 × antibiotic antimycotic solution and incubated at 37 °C in the atmosphere of 5% CO2. The experiment was performed according to a previously published method. Briefly, 1 × 10^5 cells/mL were seeded into a 96-well plate (100 µL/well). After 24 h, flavonoids and their derivatives were administered at the concentration range of 31.25–500 µM. After 72 h, the viability was determined by resazurin assay (0.03 mg/mL of resazurin in PBS), where the fluorescence was measured after 2 h of incubation by the SpectraMax i3x microplate reader at a wavelength of 560/590 nm (excitation/emission). The concentration inhibiting half of the population (IC50) was determined using nonlinear regression in GraphPad Prism software. The selectivity index was calculated as the ratio between the IC50 for HDF (control, non-cancerous cells) and the IC50 for HOC/DOX (cancer cells).

[4] = tested on: human dermal fibroblasts (HDF); experiment: Cytotoxicity (resazurin assay, 72 h); format: cell-based; conditions: Fibroblast
Procedure: as §3

[5] = tested on: pooled male rat microsomal liver membranes; experiment: Inhibition of lipid peroxidation induced by tert-butyl hydroperoxide; format: biochemical; conditions: male rat microsomes, read-out: ILP IC50
Procedure: (§4) The antiradical activity was evaluated by the ability to scavenge ABTS and DPPH radicals. Reducing capacity was assessed by the ability to reduce the Folin–Ciocalteu reagent (FCR) and ferric ions (FRAP). The ability to inhibit lipid peroxidation of pooled male rat microsomal liver membranes induced by tert-butyl hydroperoxide was also evaluated and the results were expressed as IC50 values.

[6] = Folin-Ciocalteu reagent reduction; conditions: gallic acid equivalents
Procedure: (§5) To further elucidate how halogenation affects other properties of the flavonoids studied, their 2,2′-azino-bis-(3-ethylbenzothiazoline-6-sulfonic acid) cation (ABTS) and 1,1-diphenyl-2-picrylhydrazyl (DPPH) radical scavenging, the Folin–Ciocalteu reagent (FCR) reducing, the ferric-reducing antioxidant power (FRAP), and the anti-lipoperoxidation activities were evaluated by in vitro methods (Supplementary Information Tables S1 and S2).
as §4

[7] = tested on: multidrug-resistant P. aeruginosa; experiment: Sensitization of antibiotic-resistant bacteria (compound plus breakpoint antibiotic concentration); format: cell-based, Pseudomonas aeruginosa; conditions: flavonoid 40 µM, 24 h; for Effect on viability in combination with colistin: colistin 2 mg/L; for Effect on viability in combination with imipenem: imipenem 4 mg/L; for Effect on viability in combination with imipenem: key: -: no effect (100% viability) was observed up to the highest flavonolignan concentration tested (>40 µM); reversion of resistance: the compound reversed the resistant phenotype to a sensitive one
Procedure: (§6) Clinically relevant antibiotics were selected for sensitization testing according to the European Committee on Antimicrobial Susceptibility Testing (EUCAST). Neither colistin and imipenem at breakpoint concentrations (according to EUCAST, […] and […]) affected the growth of the multidrug-resistant clinical strain of P. aeruginosa. Similarly, neither chloramphenicol and gentamicin at breakpoint concentrations ([…], respectively) affected the multidrug-resistant clinical strain of S. aureus. Flavonoids and their derivatives (1–40 µM) were used in combination therapy, along with the breakpoint concentration of antibiotics. After co-incubation, the minimum inhibitory concentration of flavonoids inhibiting the visible growth of bacteria was determined (Table 2).
(§7) Clinical isolates of P. aeruginosa and S. aureus were obtained from the General University Hospital in Prague (Prague, Czech Republic). P. aeruginosa was resistant to ciprofloxacin, oxacillin, ticarcillin, colistin, gentamicin, and imipenem. S. aureus was resistant to ciprofloxacin, gentamicin, erythromycin, chloramphenicol, clindamycin, oxacillin, cefotaxime, and vancomycin. Bacteria were cultivated in Mueller–Hinton broth (MH broth, Merck). The susceptibility of the bacteria was evaluated by the minimum inhibitory concentrations (MIC). The MIC of derivatives in the presence of the antibiotic cut-off concentration was determined according to ISO 20776-1: 2020. The antibiotic cut-off concentration was chosen according to the European Committee on Antimicrobial Susceptibility Testing (EUCAST, Clinical breakpoints—bacteria (ver. 11.0), 1 January 2021). The 40 µM concentration of the derivatives was chosen as the highest concentration for the tests. Cell viability was determined by measuring absorbance (A590 nm) after 24 h incubation at 37 °C, 150 rpm.

[8] = ABTS cation radical scavenging; conditions: vitamin C equivalent antioxidant capacity
Procedure: as §5, §4

[9] = tested on: multidrug-resistant S. aureus; experiment: Sensitization of antibiotic-resistant bacteria (compound plus breakpoint antibiotic concentration); format: cell-based, Staphylococcus aureus; conditions: for Effect on viability in combination with chloramphenicol: chloramphenicol 8 mg/L; for Effect on viability in combination with chloramphenicol / Effect on viability in combination with gentamicin: 24 h; for Effect on viability in combination with gentamicin: gentamicin 1 mg/L; for Gentamicin-resistant phenotype of S. aureus (result in words): gentamicin breakpoint concentration
Procedure: as §6, §7

Structure (SMILES)	EC50 [1] [µM]	SI (selectivity index) [1]	EC50 [2] [µM]	SI (selectivity index) [2]	IC50 [3] [µM]	SI (selectivity index) [3]	IC50 [4] [µM]	IC50 [5] [µM]	FCR [GAE] [6] [GAE]	Effect on viability in combination with colistin [7]	Effect on viability in combination with imipenem [7]	ABTS [CEAC] [8] [CEAC]	Effect on viability in combination with chloramphenicol ([9]; flavonoid 40 µM)	Effect on viability in combination with gentamicin ([9]; flavonoid 40 µM)	Gentamicin-resistant phenotype of S. aureus (result in words) ([9]; compound 40 µM)	Effect on viability in combination with gentamicin ([9]; flavonoid 5 µM)	Gentamicin-resistant phenotype of S. aureus (result in words) ([9]; compound 5 µM)
O=c1c(O)c(-c2ccc(O)c(O)c2)oc2c(Br)c(O)cc(O)c12 [compound 9, 8-bromoquercetin]	0.4 ± 0.02	2.9 ± 0.3	25.6 ± 0.5	1.08 ± 0.04	171	0.77	132	38.3 ± 1.9	2.01 ± 0.06	-	-	2.92 ± 0.28	-	-			
COc1cc([C@@H]2Oc3cc([C@H]4Oc5c(Br)c(O)c(Br)c(O)c5C(=O)[C@@H]4O)ccc3O[C@H]2CO)ccc1O [compound 14, 6,8-dibromosilybin B]	19.3 ± 0.5	3.1 ± 0.3	14.7 ± 0.7	1.1 ± 0.1	231	0.55	128	378	1.10 ± 0.05	-	-	0.35 ± 0.04	-				
COc1cc([C@H]2Oc3cc([C@H]4Oc5cc(O)cc(O)c5C(=O)[C@@H]4O)ccc3O[C@@H]2CO)ccc1O [3a, silybin A, reference compound]	17.1 ± 0.5	7.0 ± 0.4	97.1 ± 1	1.3 ± 0.1	236	0.46	109	213	1.35 ± 0.06	-	-	0.50 ± 0.03	-	-			
COc1cc([C@@H]2Oc3c(O)cc(-c4oc5c(Br)c(O)cc(O)c5c(=O)c4O)cc3[C@H]2CO)ccc1O [compound 18, 8-Bromo-2,3-dehydrosilychristin A]	10.5 ± 0.2	2.2 ± 0.1	29.4 ± 0.7	2.7 ± 0.1	209	0.32	66.7 ± 5.6	60.1 ± 2.7	2.22	-	-	1.41	-	-			
COc1cc([C@H]2Oc3cc([C@H]4Oc5c(Br)c(O)c(Br)c(O)c5C(=O)[C@@H]4O)ccc3O[C@@H]2CO)cc(Br)c1O [compound 21, 6,8,21-tribromosilybin A]	30.7 ± 1.6	≥6.5 ± 0.3	> 200		201	0.37	75 ± 2.4	213	0.99 ± 0.02	-	-	0.12 ± 0.02	-	reversion of resistance	reversed the resistant phenotype to a sensitive one; also recorded: revert the resistant phenotype into a sensitive one		
COc1cc([C@H]2Oc3cc([C@H]4Oc5c(Br)c(O)c(Br)c(O)c5C(=O)[C@@H]4O)ccc3O[C@@H]2CO)ccc1O [compound 12, 6,8-dibromosilybin A]	13.2 ± 0.3	6.1 ± 0.5	12.2 ± 0.4	1.9 ± 0.2	304	0.34	102	710	0.85 ± 0.03	-	-	0.30 ± 0.04	-				
COc1cc([C@@H]2Oc3cc([C@H]4Oc5cc(O)c(Br)c(O)c5C(=O)[C@@H]4O)ccc3O[C@H]2CO)ccc1O [compound 13, 6-Bromosilybin B]	26.1 ± 1.3	2.0 ± 0.1	14.5 ± 0.5	1.11 ± 0.04	162	0.47	76.4 ± 1.1	728	1.17 ± 0.04	-	-	0.75 ± 0.02	-				
COc1cc(C2Oc3cc(-c4oc5cc(O)cc(O)c5c(=O)c4O)ccc3OC2CO)ccc1O (stereo not shown) [compound 4, 2,3-dehydrosilybin AB, reference compound]	10.2 ± 0.4	2.5 ± 0.2	59.9 ± 2	2.7 ± 0.2	23.5 ± 1.5	0.71		34.6 ± 2.3	1.68 ± 0.03	-	-	1.46 ± 0.08	-			reversion of resistance [5 µM]	reversed
